Format in all cases: functional
The test system of experiment [1] is Staphylococcus aureus. Briefly: Antibacterial activity against methicillin-resistant Staphylococcus aureus after overnight incubation by micro broth dilution analysis. Background: Broth dilution looks for growth in wells or tubes with falling amounts of substance.
Experiment [2] relates to Staphylococcus epidermidis. Briefly: Antibacterial activity against methicillin-resistant Staphylococcus epidermidis after overnight incubation by micro broth dilution analysis.
Experiment [3] has as its system Staphylococcus haemolyticus. As to the kind of experiment: Antibacterial activity against methicillin-resistant Staphylococcus haemolyticus after overnight incubation by micro broth dilution analysis.
The test system of experiment [4] is Staphylococcus aureus. Briefly: Antibacterial activity against methicillin-resistant Staphylococcus aureus assessed as zone of inhibition at 50 ug/mL after 24 hrs by agar disc diffusion method. The settings on record: read-out: IZ.
The test system of experiment [5] is Staphylococcus epidermidis. Briefly: Antibacterial activity against methicillin-resistant Staphylococcus epidermidis assessed as zone of inhibition at 20 ug/mL after 24 hrs by agar disc diffusion method. The settings on record: read-out: IZ. (In agar diffusion tests the substance spreads into inoculated agar from a disc or well.)
Experiment [6] has as its system Staphylococcus haemolyticus. As to the kind of experiment: Antibacterial activity against methicillin-resistant Staphylococcus haemolyticus assessed as zone of inhibition at 50 ug/mL after 24 hrs by agar disc diffusion method. As to conditions: read-out: IZ.

This is an account of results in ChEMBL document CHEMBL4382233, “Discovery of novel arylethenesulfonyl fluorides as potential candidates against methicillin-resistant of Staphylococcus aureus (MRSA) for overcoming multidrug resistance of bacterial infections” (2019).

Values after ≈ are worked out from the molar mass of the structure shown.

One may read the MIC99 as an inhibitory concentration at the 99% level, which refers to growth in some studies and to a panel of isolates in others. Low values mean greater potency, high ones weaker potency.

For the molecule `O=S(=O)(F)/C=C/c1cccc2c1oc1ccccc12`, the MIC99 in the experiment with Staphylococcus aureus [1] was determined as 17 µg/mL (≈ 61.6 µM); in experiment [2], 67.5 µg/mL (≈ 244 µM); in experiment [3], 47 µg/mL (≈ 170 µM). Besides, the results for the zone of inhibition at 50 µg/mL (in the experiment with Staphylococcus aureus [4]; in experiment [6]) were 6.3 mm and 3.3 mm, respectively. Also, in experiment [5], the zone of inhibition at 20 µg/mL turned out to be 3.5 mm.
Regarding `O=S(=O)(F)/C=C/C=C/c1ccc(F)c(F)c1`, the MIC99 against Staphylococcus aureus [1] worked out at 50.1 µg/mL (≈ 202 µM); in experiment [2], 51.6 µg/mL (≈ 208 µM); in experiment [3] it was 55.1 µg/mL (≈ 222 µM). The values for the zone of inhibition at 50 µg/mL (with Staphylococcus aureus [4]; in experiment [6]) were 6.1 mm and 4.3 mm, respectively. The zone of inhibition at 20 µg/mL in experiment [5] is 5.5 mm.
As to `O=S(=O)(F)/C=C/C=C/c1ccc2ccccc2c1`, the MIC99 in the experiment on Staphylococcus aureus [1] was found to be 58 µg/mL (≈ 221 µM); in experiment [2] it was 63 µg/mL (≈ 240 µM); in experiment [3] it was 51 µg/mL (≈ 195 µM). Moreover, the zone of inhibition at 50 µg/mL was 3.3 mm with Staphylococcus aureus [4] and 4.5 mm in experiment [6]. Also, the zone of inhibition at 20 µg/mL in experiment [5] was determined as 5.4 mm.
As to `CCc1ccc(/C=C/S(=O)(=O)F)cc1`, the MIC99 in the experiment with Staphylococcus aureus [1] was 45.1 µg/mL (≈ 211 µM); in experiment [2] it was 56.2 µg/mL (≈ 262 µM); in experiment [3], 60 µg/mL (≈ 280 µM). The zone of inhibition at 50 µg/mL in the experiment with Staphylococcus aureus [4] is 5.1 mm; in experiment [6], 3.5 mm. Also, the zone of inhibition at 20 µg/mL in experiment [5] turned out to be 6.1 mm.
As for `O=S(=O)(F)/C=C/C=C/c1ccc(/C=C/S(=O)(=O)F)cc1`, the values for the MIC99 (in the experiment with Staphylococcus aureus [1]; in experiment [2]; in experiment [3]) were 66.8 µg/mL (≈ 209 µM), 56 µg/mL (≈ 175 µM) and 55 µg/mL (≈ 172 µM), respectively. Also, the zone of inhibition at 50 µg/mL with Staphylococcus aureus [4] was determined as 5.3 mm; in experiment [6] it was 3.5 mm. Further, the zone of inhibition at 20 µg/mL in experiment [5] is 4.2 mm.
As to `O=S(=O)(F)/C=C/c1ccc(-c2ccccc2)cc1`, the figures for the MIC99 (in the experiment on Staphylococcus aureus [1]; in experiment [2]; in experiment [3]) were 53.2 µg/mL (≈ 203 µM), 65.1 µg/mL (≈ 248 µM) and 56.1 µg/mL (≈ 214 µM), respectively. Moreover, the zone of inhibition at 50 µg/mL in the experiment with Staphylococcus aureus [4] came out at 4.3 mm; in experiment [6], 3.5 mm. Also, the zone of inhibition at 20 µg/mL in experiment [5] was determined as 5.1 mm.
On to `O=S(=O)(F)/C=C/C=C/c1ccc(Br)cc1`, for which the MIC99 in the experiment with Staphylococcus aureus [1] was 51.1 µg/mL (≈ 176 µM); in experiment [2], 57 µg/mL (≈ 196 µM); in experiment [3], 70 µg/mL (≈ 241 µM). The zone of inhibition at 50 µg/mL (in the experiment on Staphylococcus aureus [4]; in experiment [6]) was 4.5 mm each time. Also, the zone of inhibition at 20 µg/mL in experiment [5] came out at 5.4 mm.
For `CCOC(=O)c1ccc(/C=C/S(=O)(=O)F)cc1`, the results for the MIC99 (against Staphylococcus aureus [1]; in experiment [2]; in experiment [3]) were 41.1 µg/mL (≈ 159 µM), 56.1 µg/mL (≈ 217 µM) and 67.3 µg/mL (≈ 261 µM), respectively. Moreover, the zone of inhibition at 50 µg/mL stood at 6.1 mm in the experiment with Staphylococcus aureus [4] and 4.2 mm in experiment [6]. Further, the zone of inhibition at 20 µg/mL in experiment [5] stood at 5.5 mm.
`O=Cc1ccc(/C=C/S(=O)(=O)F)cc1`: the results for the MIC99 (in the experiment on Staphylococcus aureus [1]; in experiment [2]; in experiment [3]) were 45.6 µg/mL (≈ 213 µM), 48.2 µg/mL (≈ 225 µM) and 60.1 µg/mL (≈ 281 µM), respectively. For the same molecule, the zone of inhibition at 50 µg/mL was 6 mm in the experiment with Staphylococcus aureus [4] and 5.2 mm in experiment [6]. Besides, the zone of inhibition at 20 µg/mL in experiment [5] was determined as 4.3 mm.
Take `O=C(O)c1ccc(/C=C/S(=O)(=O)F)cc1`: the MIC99 with Staphylococcus aureus [1] worked out at 55.3 µg/mL (≈ 240 µM); in experiment [2], 50.1 µg/mL (≈ 217 µM); in experiment [3], 43.3 µg/mL (≈ 188 µM). Also, the zone of inhibition at 50 µg/mL was determined as 7.2 mm in the experiment on Staphylococcus aureus [4] and 3.3 mm in experiment [6]. For the same molecule, in experiment [5], the zone of inhibition at 20 µg/mL stood at 6.5 mm.
Consider `N#Cc1cccc(/C=C/C=C/S(=O)(=O)F)c1`, for which the MIC99 was determined as 41.2 µg/mL (≈ 174 µM) with Staphylococcus aureus [1], 50 µg/mL (≈ 211 µM) in experiment [2] and 51.2 µg/mL (≈ 216 µM) in experiment [3]. For the same molecule, the zone of inhibition at 50 µg/mL with Staphylococcus aureus [4] was determined as 3.5 mm; in experiment [6], 5.1 mm. Moreover, the zone of inhibition at 20 µg/mL in experiment [5] was determined as 4.5 mm.
On to `Cc1ccc(/C=C/C=C/S(=O)(=O)F)cc1`, for which the results for the MIC99 (against Staphylococcus aureus [1]; in experiment [2]; in experiment [3]) were 60.6 µg/mL (≈ 268 µM), 57 µg/mL (≈ 252 µM) and 51 µg/mL (≈ 225 µM), respectively. Moreover, the zone of inhibition at 50 µg/mL was determined as 4.1 mm in the experiment on Staphylococcus aureus [4] and 4.3 mm in experiment [6]. Besides, the zone of inhibition at 20 µg/mL in experiment [5] is 4.1 mm.
Turning to `CCOC(=O)c1cccc(/C=C/S(=O)(=O)F)c1`, the values for the MIC99 (against Staphylococcus aureus [1]; in experiment [2]; in experiment [3]) were 40.6 µg/mL (≈ 157 µM), 53 µg/mL (≈ 205 µM) and 50.2 µg/mL (≈ 194 µM), respectively. For the same molecule, the results for the zone of inhibition at 50 µg/mL (with Staphylococcus aureus [4]; in experiment [6]) were 4.2 mm and 4.3 mm, respectively. Besides, the zone of inhibition at 20 µg/mL in experiment [5] is 4.2 mm.
For `O=S(=O)(F)/C=C/c1ccc2ccccc2c1`, the MIC99 in the experiment on Staphylococcus aureus [1] worked out at 47 µg/mL (≈ 199 µM); in experiment [2], 43.1 µg/mL (≈ 183 µM); in experiment [3], 65.5 µg/mL (≈ 277 µM). Moreover, the zone of inhibition at 50 µg/mL with Staphylococcus aureus [4] was 7.2 mm; in experiment [6] it was 3.5 mm. In addition, the zone of inhibition at 20 µg/mL in experiment [5] stood at 4.4 mm.
In the case of `CC(C)(C)c1ccc(/C=C/C=C/S(=O)(=O)F)cc1`, the MIC99 is 58.2 µg/mL (≈ 217 µM) in the experiment with Staphylococcus aureus [1], 62.1 µg/mL (≈ 232 µM) in experiment [2] and 65.3 µg/mL (≈ 243 µM) in experiment [3]. Further, the zone of inhibition at 50 µg/mL with Staphylococcus aureus [4] stood at 6.3 mm; in experiment [6], 4.5 mm. In addition, in experiment [5], the zone of inhibition at 20 µg/mL turned out to be 5.5 mm.
